US6251894A, “1-(1,2-disubstituted piperidinyl)-4 (fused imidazole)-piperidine derivatives” (Janssen Pharmaceuticals N.V., priority 1995, dated 2001)
Like-named read-outs stand apart in the source and are kept apart here.

Tests used:
[1] = tested on: Substance P Induced Relaxation of the Pig Coronary Arteries; experiment: Antagonism of substance P induced relaxation of the pig coronary arteries; settings: 30 min incubation
Method: Antagonism of Substance P Induced Relaxation of the Pig Coronary Arteries
Segments of coronary arteries taken from pigs (killed by injection of an overdose of sodium pentobarbital) were inverted and mounted for recording of isometric tension in organ baths (volume 20 ml) with the endothelium at the outside. The preparations were bathed in Krebs-Henseleit solution. The solution was kept at 37° C. and gassed with a mixture of O2 /CO2 (95/5). After stabilisation of the preparations, prostaglandin F2α (10^-5 M) was administered to induce a contraction. This was repeated until contractile responses became stable. Then prostaglandin F2α was again administered and substance P (3×10^-10 M and 10^-9 M cumulatively) was added. Substance P induced endothelium dependent relaxations. After washing away the agonists, a known concentration of a compound of formula (I) was added. After an incubation period of 30 minutes, prostaglandin F2α (10^-5 M) and the same concentrations of substance P as described above were again administered in the presence of the compound to be tested.

[2] = tested on: Substance P Induced Plasma Extravasation; experiment: Antagonism of substance P induced plasma extravasation in guinea-pigs; assay type: in vivo, guinea-pig; settings: Cavia porcellus, 1 hour prior to substance P
Method: Antagonism of Substance P Induced Plasma Extravasation in Guinea-pigs
Plasma travasation was induced by injection of substance P (2 mg/kg) in the femoral artery of female guinea-pigs. Evans Blue dye (30 mg/kg) was injected simultaneously. The test compound or solvent was administered subcutaneous (s.c.) or orally (p.o.) 1 hour prior to substance P injection. 10 minutes after challenge, the animals were checked for blue colouring (a direct measure for plasma extravasation) of the nose, the forepaws, and the conjunctiva. 30 minutes after challenge, the animals were sacrificed by CO2 gas inhalation and checked for blue colouring of the trachea and the urinary bladder. […]

[3] = test compound concentration 3 × 10^-9 (unit not given)
[4] = sc, 10 min, s.c., conjunctiva, read-out: lowest active dose (LAD), conjunctiva
[5] = sc, 10 min, s.c., forepaws, read-out: lowest active dose (LAD), forepaws
[6] = sc, 10 min, s.c., nose, read-out: lowest active dose (LAD), nose
[7] = sc, 0.5 h, s.c., trachea, read-out: lowest active dose (LAD), trachea
[8] = sc, 0.5 h, s.c., urinary bladder, read-out: lowest active dose (LAD), urinary bladder
[9] = po, 10 min, p.o., conjunctiva, read-out: lowest active dose (LAD), conjunctiva
[10] = po, 10 min, p.o., forepaws, read-out: lowest active dose (LAD), forepaws
[11] = po, 10 min, p.o., nose, read-out: lowest active dose (LAD), nose
[12] = po, 0.5 h, p.o., trachea, read-out: lowest active dose (LAD), trachea
[13] = po, 0.5 h, p.o., urinary bladder, read-out: lowest active dose (LAD), urinary bladder

| Compound | % inhibition of the response to 10^-9 M substance P [1, 3] | further results |
| --- | --- | --- |
| Cc1cc(C)cc(C(=O)N2CC[C@@H](N3CCC(=C4c5ccn(C)c5CCn5ccnc54)CC3)C[C@@H]2Cc2ccccc2)c1 (relative stereo) [Compound 34] | 43.5% | minimal effective dose [2, 4]: 2.5 mg/kg; minimal effective dose [2, 5]: 0.63 mg/kg; minimal effective dose [2, 6]: 0.63 mg/kg; minimal effective dose [2, 7]: 0.63 mg/kg; minimal effective dose [2, 8]: 0.63 mg/kg |
| O=C(c1cc(C(F)(F)F)cc(C(F)(F)F)c1)N1CC[C@@H](N2CCC(=C3c4sccc4CCn4ccnc43)CC2)C[C@@H]1Cc1ccccc1 (relative stereo) [Compound 7] | 83.1% | minimal effective dose [2, 4]: 2.5 mg/kg; minimal effective dose [2, 5]: 10 mg/kg; minimal effective dose [2, 6]: 2.5 mg/kg; minimal effective dose [2, 7]: 10 mg/kg; minimal effective dose [2, 8]: 10 mg/kg |
| O=C1Cn2ccnc2C(=C2CCN([C@@H]3CCN(C(=O)c4cc(C(F)(F)F)cc(C(F)(F)F)c4)[C@@H](Cc4ccccc4)C3)CC2)c2ccsc21 (relative stereo) [Compound 107] | 96.3% | minimal effective dose [2, 9]: 10 mg/kg; minimal effective dose [2, 10]: 10 mg/kg; minimal effective dose [2, 11]: 10 mg/kg; minimal effective dose [2, 12]: 10 mg/kg; minimal effective dose [2, 13]: 10 mg/kg |
| Cc1cc(C)cc(C(=O)N2CC[C@@H](N3CCC(=C4c5sccc5CCn5ccnc54)CC3)C[C@H]2Cc2ccccc2)c1 (relative stereo) [Compound 35] | 27.7% | minimal effective dose [2, 4]: 10 mg/kg; minimal effective dose [2, 5]: 10 mg/kg; minimal effective dose [2, 6]: 10 mg/kg; minimal effective dose [2, 7]: 10 mg/kg; minimal effective dose [2, 8]: 10 mg/kg |
| Cc1cc(C)cc(C(=O)N2CC[C@@H](N3CCC4(CC3)c3ccccc3CCn3ccnc34)C[C@@H]2Cc2ccccc2)c1 (relative stereo) [Compound 120] | 7.7% | minimal effective dose [2, 4]: 2.5 mg/kg; minimal effective dose [2, 5]: 2.5 mg/kg; minimal effective dose [2, 6]: 2.5 mg/kg; minimal effective dose [2, 7]: 10 mg/kg; minimal effective dose [2, 8]: 10 mg/kg |
| O=C(c1cc(C(F)(F)F)cc(C(F)(F)F)c1)N1CC[C@H](N2CCC(=C3c4ccccc4CCn4c3nc3ccccc34)CC2)C[C@H]1Cc1ccccc1 (relative stereo) [Compound 72] | 97.4% | minimal effective dose [2, 9]: 10 mg/kg; minimal effective dose [2, 10]: 10 mg/kg; minimal effective dose [2, 11]: 10 mg/kg; minimal effective dose [2, 12]: 10 mg/kg; minimal effective dose [2, 13]: 10 mg/kg |
| Cc1cc(C)cc(C(=O)N2CC[C@@H](N3CCC4(CC3)c3ccccc3CCn3ccnc34)C[C@H]2Cc2ccccc2)c1 (relative stereo) [Compound 119, (±)-cis-4-(5,6-dihydrospiro[11H-imidazo[2,1-b][3]benzazepine-11,4'-piperidin]-1-yl)-1-(3,5-dimethylbenzoyl)-2-(phenylmethyl)piperidine] | 9.3% |  |
| O=C(c1cc(C(F)(F)F)cc(C(F)(F)F)c1)N1CCC(N2CCC(C3c4ccccc4CCn4c3nc3ccccc34)CC2)CC1Cc1ccccc1 (stereo not drawn) [Compound 12] |  | % inhibition of the response to 10^-9 M substance P ([1]; test compound concentration 3 × 10^-8 (unit not given)): 93.2% |
| CC(C(=O)N1CC[C@@H](N2CCC(C3c4ccccc4Cn4c3nc3ccccc34)CC2)C[C@@H]1Cc1ccccc1)c1ccccc1 (stereo partly drawn) [Compound 99] | 18.2% |  |
| O=C(c1cc(C(F)(F)F)cc(C(F)(F)F)c1)N1CC[C@H](N2CCC(=C3c4ccccc4CCn4c3nc3ccccc34)CC2)C[C@@H]1Cc1ccccc1 (relative stereo) [Compound 71] | 53.1% |  |
| O=C(c1ccccc1)N1CCC(N2CCC(C3c4ccccc4Cn4c3nc3ccccc34)CC2)CC1Cc1ccccc1 (stereo not drawn) [Compound 73] | 2.8% |  |
| COC(=O)c1cnc2n1CCc1ccsc1C2=C1CCN([C@@H]2CCN(C(=O)c3cc(C)cc(C)c3)[C@@H](Cc3ccccc3)C2)CC1 (relative stereo) [Compound 36] | 23.7% |  |
| O=C(c1cc(C(F)(F)F)cc(C(F)(F)F)c1)N1CCC(N2CCC(=C3c4ccc(Cl)cc4CCn4ccnc43)CC2)CC1Cc1ccccc1 (stereo not drawn) [Compound 32] | 71.6% |  |
| O=C(c1cc(C(F)(F)F)cc(C(F)(F)F)c1)N1CC[C@@H](N2CCC(C3c4ccccc4Cn4ccnc43)CC2)C[C@@H]1Cc1ccccc1 (stereo partly drawn) [Compound 116] | 69.6% |  |
| O=C(c1ccco1)N1CC[C@@H](N2CCC(=C3c4ccccc4CCn4ccnc43)CC2)C[C@@H]1Cc1ccccc1 (relative stereo) [Compound 77] | 3.2% |  |
| Cc1cn2c(n1)C(=C1CCN([C@H]3CCN(C(=O)c4cc(C(F)(F)F)cc(C(F)(F)F)c4)[C@H](Cc4ccccc4)C3)CC1)c1ccn(C)c1CC2 (relative stereo) [Compound 60] | 89.9% |  |
| CC(C(=O)N1CCC(N2CCC(=C3c4ccccc4CCn4ccnc43)CC2)CC1Cc1ccccc1)c1ccccc1 (stereo not drawn) [Compound 85] | 1.8% |  |

| Compound | % inhibition of the response to 10^-9 M substance P [1, 3] | further results |
| --- | --- | --- |
| O=C(c1ccc2ccccc2c1)N1CC[C@H](N2CCC(=C3c4ccccc4CCn4ccnc43)CC2)C[C@@H]1Cc1ccccc1 (relative stereo) [Compound 84] | 2.4% |  |
| Cc1c(C(=O)N2CC[C@@H](N3CCC(C4c5ccccc5Cn5c4nc4ccccc45)CC3)C[C@@H]2Cc2ccccc2)oc2ccccc12 (stereo partly drawn) [Compound 101] | 11.8% |  |
| Cc1cc(C)cc(C(=O)N2CCC(N3CCC(=C4c5ccc(Cl)cc5CCn5ccnc54)CC3)CC2Cc2ccccc2)c1 (stereo not drawn) [Compound 31] | 82.7% |  |
| Cc1cc(C)cc(C(=O)N2CC[C@H](N3CCC(=C4c5ccccc5CCn5c4nc4ccccc45)CC3)C[C@H]2Cc2ccccc2)c1 (relative stereo) [Compound 46] | 54.3% |  |
| O=C(c1cc2cc(F)ccc2[nH]1)N1CC[C@H](N2CCC(=C3c4ccccc4CCn4ccnc43)CC2)C[C@@H]1Cc1ccccc1 (relative stereo) [Compound 89] | 1.1% |  |
| Cc1cc(C)cc(C(=O)N2CC[C@H](N3CCC(=C4c5ccccc5CCn5c(Cl)cnc54)CC3)C[C@H]2Cc2ccccc2)c1 (relative stereo) [Compound 44] | 63.9% |  |
| O=C(c1cc(C(F)(F)F)cc(C(F)(F)F)c1)N1CC[C@H](N2CCC(=C3c4ccccc4CCn4c3nc(CO)c4CO)CC2)C[C@H]1Cc1ccccc1 (relative stereo) [Compound 49] | 52.5% |  |
| O=C(Nc1cc(C(F)(F)F)cc(C(F)(F)F)c1)N1CC[C@@H](N2CCC(C3c4ccccc4Cn4c3nc3ccccc34)CC2)C[C@@H]1Cc1ccccc1 (stereo partly drawn) [Compound 100] | 13.9% |  |
| O=C(c1cc(C(F)(F)F)cc(C(F)(F)F)c1)N1CCC(N2CCC(C3c4ccccc4Cn4ccnc43)CC2)CC1Cc1ccccc1 (stereo not drawn) [Compound 115] | 60.2% |  |
| Cc1cc(C)cc(C(=O)N2CCC(N3CCC(=C4c5ccccc5OCn5ccnc54)CC3)CC2Cc2ccccc2)c1 (stereo not drawn) [Compound 104] | 83.0% |  |
| COC(=O)c1cnc2n1CCc1ccccc1C2=C1CCN([C@H]2CCN(C(=O)c3cc(C)cc(C)c3)[C@@H](Cc3ccccc3)C2)CC1 (relative stereo) [Compound 40] | 8.4% |  |
| Cc1cc(C)cc(C(=O)N2CC[C@H](N3CCC(=C4c5ccccc5CCn5c(Cl)cnc54)CC3)C[C@@H]2Cc2ccccc2)c1 (relative stereo) [Compound 43] | 16% |  |
| Cc1cc(C)cc(C(=O)N2CC[C@H](N3CCC(=C4c5ccccc5CCn5c4nc4ccccc45)CC3)C[C@@H]2Cc2ccccc2)c1 (relative stereo) [Compound 45] | 7.9% |  |
| O=C(c1cnc2ccccc2n1)N1CCC(N2CCC(C3c4ccccc4Cn4c3nc3ccccc34)CC2)CC1Cc1ccccc1 (stereo not drawn) [Compound 93] | 3.1% |  |
| O=C(c1ccc2ccccc2c1)N1CC[C@@H](N2CCC(=C3c4ccccc4CCn4ccnc43)CC2)C[C@@H]1Cc1ccccc1 (relative stereo) [Compound 78] | 7.5% |  |
| Cc1cn2c(n1)C(=C1CCN([C@H]3CCN(C(=O)c4cc(C(F)(F)F)cc(C(F)(F)F)c4)[C@@H](Cc4ccccc4)C3)CC1)c1ccn(C)c1CC2 (relative stereo) [Compound 59] | 76.5% |  |
